From ChEMBL document CHEMBL5465560, “Selectivity Literature for EUbOPEN Chemogenomic Library” (2024)

What was measured:
[1] = molecular target: Cyclin-dependent kinase 2/cyclin E (Homo sapiens, UniProt P24941); test: Selectivity interaction (Enzyme panel (AstraZeneca, AlphaScreen, functional assay)) EUB0000621a CDK2; assay type: protein-complex assay
[2] = molecular target: RAC-gamma serine/threonine-protein kinase (Homo sapiens, UniProt Q9Y243); test: Selectivity interaction (Kinase screening (Nanosyn)) EUB0000604a AKT3
Sequence of RAC-gamma serine/threonine-protein kinase (Q9Y243 whole entry): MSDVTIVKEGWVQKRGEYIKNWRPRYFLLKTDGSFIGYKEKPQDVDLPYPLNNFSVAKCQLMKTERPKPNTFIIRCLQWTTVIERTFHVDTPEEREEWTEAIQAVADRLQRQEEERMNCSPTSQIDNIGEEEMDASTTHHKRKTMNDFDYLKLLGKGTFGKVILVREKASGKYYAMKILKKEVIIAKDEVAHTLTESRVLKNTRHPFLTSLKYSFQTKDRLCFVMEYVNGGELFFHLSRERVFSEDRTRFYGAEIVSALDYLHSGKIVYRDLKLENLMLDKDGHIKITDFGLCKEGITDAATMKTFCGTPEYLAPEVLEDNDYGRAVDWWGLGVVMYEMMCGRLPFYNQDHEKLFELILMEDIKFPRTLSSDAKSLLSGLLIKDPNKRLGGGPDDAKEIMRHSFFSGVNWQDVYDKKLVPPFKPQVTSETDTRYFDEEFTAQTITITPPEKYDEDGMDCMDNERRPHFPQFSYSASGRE

[3] = molecular target: T1, Inhibitor of nuclear factor kappa-B kinase subunit beta (Homo sapiens) (UniProt O14920); test: Selectivity interaction (Ambit KINOMEscan and KiNATiv profiling in Jurkat cells) EUB0000090b IKBKB; assay type: cell-based; details: at 1 µM
T1 sequence (whole entry): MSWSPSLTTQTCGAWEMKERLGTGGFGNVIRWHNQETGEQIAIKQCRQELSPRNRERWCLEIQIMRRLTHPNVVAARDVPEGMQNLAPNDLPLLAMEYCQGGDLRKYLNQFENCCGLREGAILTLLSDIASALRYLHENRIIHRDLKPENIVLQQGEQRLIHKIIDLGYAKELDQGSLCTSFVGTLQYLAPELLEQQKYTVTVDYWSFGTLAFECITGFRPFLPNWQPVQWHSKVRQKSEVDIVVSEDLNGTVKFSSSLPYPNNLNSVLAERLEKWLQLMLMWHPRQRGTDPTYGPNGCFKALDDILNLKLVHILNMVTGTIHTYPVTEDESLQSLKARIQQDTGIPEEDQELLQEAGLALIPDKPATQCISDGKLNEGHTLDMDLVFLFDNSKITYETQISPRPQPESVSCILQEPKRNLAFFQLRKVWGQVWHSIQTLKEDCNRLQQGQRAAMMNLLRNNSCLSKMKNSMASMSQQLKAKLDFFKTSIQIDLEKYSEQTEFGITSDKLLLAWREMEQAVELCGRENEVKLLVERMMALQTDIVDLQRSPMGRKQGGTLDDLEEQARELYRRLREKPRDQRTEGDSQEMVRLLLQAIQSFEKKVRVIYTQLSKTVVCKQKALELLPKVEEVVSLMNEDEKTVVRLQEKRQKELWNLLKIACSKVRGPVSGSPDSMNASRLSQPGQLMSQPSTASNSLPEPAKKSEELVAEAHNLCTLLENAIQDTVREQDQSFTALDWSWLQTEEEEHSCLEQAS

[4] = molecular target: Cyclin-dependent kinase 16 (Homo sapiens) (UniProt Q00536); test: Selectivity interaction (ActivX KiNativ screen (kinase selectivity in THP-1 cell lysates)) EUB0000639a CDK16; assay type: subcellular; details: lysate, at 0.01 µM
Sequence of Cyclin-dependent kinase 16 (Homo sapiens) (Q00536 whole entry): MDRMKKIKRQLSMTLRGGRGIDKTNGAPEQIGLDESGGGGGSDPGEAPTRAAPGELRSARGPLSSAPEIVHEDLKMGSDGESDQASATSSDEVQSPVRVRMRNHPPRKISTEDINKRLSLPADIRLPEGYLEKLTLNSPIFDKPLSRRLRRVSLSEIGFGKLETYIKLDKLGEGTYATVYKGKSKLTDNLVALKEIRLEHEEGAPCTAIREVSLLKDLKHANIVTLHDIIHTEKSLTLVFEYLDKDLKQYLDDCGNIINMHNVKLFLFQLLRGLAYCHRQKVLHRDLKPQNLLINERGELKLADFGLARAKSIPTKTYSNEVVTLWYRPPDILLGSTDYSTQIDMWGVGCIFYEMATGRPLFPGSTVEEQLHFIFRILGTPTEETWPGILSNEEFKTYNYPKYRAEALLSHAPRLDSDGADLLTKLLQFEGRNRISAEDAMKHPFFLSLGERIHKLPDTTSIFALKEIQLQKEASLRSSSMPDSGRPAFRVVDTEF

[5] = molecular target: T2, STE20-related kinase adapter protein alpha (Homo sapiens) (UniProt Q7RTN6); test: Selectivity interaction (ActivX KiNativ screen (kinase selectivity in THP-1 cell lysates)) EUB0000639a STRADA; assay type: subcellular; details: lysate, at 1 µM
T2 sequence (whole entry): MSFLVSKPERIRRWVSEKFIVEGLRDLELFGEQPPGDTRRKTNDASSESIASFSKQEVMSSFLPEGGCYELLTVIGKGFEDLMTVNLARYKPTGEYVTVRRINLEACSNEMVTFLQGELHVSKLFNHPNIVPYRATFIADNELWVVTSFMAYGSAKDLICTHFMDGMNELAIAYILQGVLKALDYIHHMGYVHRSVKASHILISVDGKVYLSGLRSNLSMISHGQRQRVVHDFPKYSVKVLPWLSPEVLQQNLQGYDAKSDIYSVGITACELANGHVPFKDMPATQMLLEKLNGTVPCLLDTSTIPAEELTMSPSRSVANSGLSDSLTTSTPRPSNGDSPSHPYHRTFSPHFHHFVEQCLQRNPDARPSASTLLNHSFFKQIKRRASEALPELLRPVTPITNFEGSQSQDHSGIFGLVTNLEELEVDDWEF

[6] = molecular target: T3, Dual specificity tyrosine-phosphorylation-regulated kinase 4 (Homo sapiens) (UniProt Q9NR20); test: Selectivity interaction (Kinase panel (Z-LYTE Assay)) EUB0001632a DYRK4; details: at 10 µM
T3 sequence (whole entry): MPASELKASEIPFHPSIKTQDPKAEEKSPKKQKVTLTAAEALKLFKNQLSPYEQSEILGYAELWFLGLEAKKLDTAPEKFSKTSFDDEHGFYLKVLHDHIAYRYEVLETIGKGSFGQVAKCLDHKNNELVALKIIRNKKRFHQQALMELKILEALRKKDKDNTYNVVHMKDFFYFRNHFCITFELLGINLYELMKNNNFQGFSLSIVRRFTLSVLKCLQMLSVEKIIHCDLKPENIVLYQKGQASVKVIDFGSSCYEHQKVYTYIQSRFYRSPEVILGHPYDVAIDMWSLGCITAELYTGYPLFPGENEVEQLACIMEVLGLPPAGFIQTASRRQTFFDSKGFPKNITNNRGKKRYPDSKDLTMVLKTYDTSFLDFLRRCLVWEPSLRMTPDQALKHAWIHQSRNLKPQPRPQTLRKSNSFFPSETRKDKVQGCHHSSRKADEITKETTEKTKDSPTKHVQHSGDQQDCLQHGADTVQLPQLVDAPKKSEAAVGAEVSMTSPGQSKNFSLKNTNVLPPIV

[7] = molecular target: Insulin receptor-related protein (Homo sapiens) (UniProt P14616); test: Selectivity interaction (Kinase panel (Z-LYTE Assay)) EUB0001632a INSRR; details: at 10 µM
Sequence of Insulin receptor-related protein (Homo sapiens) (P14616 27-742 limits assumed): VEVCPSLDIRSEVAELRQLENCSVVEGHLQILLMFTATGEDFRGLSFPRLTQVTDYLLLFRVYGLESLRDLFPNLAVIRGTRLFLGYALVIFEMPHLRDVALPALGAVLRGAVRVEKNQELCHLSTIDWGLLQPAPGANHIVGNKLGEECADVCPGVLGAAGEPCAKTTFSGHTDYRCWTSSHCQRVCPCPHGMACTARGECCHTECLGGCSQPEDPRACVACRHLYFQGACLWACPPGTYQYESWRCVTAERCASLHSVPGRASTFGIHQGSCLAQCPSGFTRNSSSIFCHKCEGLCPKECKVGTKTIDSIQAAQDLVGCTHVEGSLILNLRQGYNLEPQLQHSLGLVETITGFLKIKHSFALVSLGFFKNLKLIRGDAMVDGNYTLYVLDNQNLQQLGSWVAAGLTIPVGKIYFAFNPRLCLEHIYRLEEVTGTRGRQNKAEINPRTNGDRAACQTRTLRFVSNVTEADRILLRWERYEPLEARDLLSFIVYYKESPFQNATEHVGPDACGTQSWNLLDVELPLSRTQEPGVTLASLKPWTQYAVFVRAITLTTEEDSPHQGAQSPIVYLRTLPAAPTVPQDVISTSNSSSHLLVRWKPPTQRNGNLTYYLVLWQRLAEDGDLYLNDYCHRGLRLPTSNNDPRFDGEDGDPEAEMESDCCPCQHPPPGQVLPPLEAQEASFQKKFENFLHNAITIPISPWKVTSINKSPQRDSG
Sequence of Insulin receptor-related protein (Homo sapiens) (P14616 747-1297 limits assumed): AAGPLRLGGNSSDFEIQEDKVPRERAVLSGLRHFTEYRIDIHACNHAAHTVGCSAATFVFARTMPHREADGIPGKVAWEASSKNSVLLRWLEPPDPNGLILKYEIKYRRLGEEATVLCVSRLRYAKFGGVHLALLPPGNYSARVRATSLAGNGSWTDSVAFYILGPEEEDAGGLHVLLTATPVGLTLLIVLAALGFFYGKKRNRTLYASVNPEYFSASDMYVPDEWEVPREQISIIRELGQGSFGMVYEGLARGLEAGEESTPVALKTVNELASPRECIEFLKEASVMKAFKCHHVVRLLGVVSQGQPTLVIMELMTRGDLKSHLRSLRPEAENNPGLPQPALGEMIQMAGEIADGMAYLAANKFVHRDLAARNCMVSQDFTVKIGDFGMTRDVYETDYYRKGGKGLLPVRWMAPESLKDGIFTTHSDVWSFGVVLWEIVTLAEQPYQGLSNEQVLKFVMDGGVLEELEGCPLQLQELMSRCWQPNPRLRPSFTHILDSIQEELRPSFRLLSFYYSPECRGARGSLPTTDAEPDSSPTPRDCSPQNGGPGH

[8] = molecular target: T4, Rhodopsin kinase GRK1 (Homo sapiens) (UniProt Q15835); test: Selectivity interaction (KinomeScan (DiscoverX)) EUB0000695a GRK1; details: at 100 nM
T4 sequence (whole entry): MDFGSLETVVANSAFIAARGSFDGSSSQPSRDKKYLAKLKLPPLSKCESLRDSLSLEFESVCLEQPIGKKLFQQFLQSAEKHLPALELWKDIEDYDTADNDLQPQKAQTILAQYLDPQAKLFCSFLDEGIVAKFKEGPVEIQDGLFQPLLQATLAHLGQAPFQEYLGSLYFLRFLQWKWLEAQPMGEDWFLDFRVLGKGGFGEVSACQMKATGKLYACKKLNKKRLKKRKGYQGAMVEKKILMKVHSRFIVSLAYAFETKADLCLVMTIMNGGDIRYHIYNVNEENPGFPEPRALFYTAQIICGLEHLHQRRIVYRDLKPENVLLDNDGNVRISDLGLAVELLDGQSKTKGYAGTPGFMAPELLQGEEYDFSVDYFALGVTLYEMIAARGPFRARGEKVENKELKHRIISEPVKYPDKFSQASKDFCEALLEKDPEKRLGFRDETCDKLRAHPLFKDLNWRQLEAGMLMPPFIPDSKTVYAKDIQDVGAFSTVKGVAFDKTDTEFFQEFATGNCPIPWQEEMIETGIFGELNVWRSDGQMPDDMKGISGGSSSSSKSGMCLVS

[9] = molecular target: Glycogen synthase kinase-3 beta (Homo sapiens, UniProt P49841); test: Selectivity interaction (KinomeScan (DiscoverX)) EUB0000092b GSK3B; details: at 10 µM
Sequence of Glycogen synthase kinase-3 beta (P49841 whole entry, looked up): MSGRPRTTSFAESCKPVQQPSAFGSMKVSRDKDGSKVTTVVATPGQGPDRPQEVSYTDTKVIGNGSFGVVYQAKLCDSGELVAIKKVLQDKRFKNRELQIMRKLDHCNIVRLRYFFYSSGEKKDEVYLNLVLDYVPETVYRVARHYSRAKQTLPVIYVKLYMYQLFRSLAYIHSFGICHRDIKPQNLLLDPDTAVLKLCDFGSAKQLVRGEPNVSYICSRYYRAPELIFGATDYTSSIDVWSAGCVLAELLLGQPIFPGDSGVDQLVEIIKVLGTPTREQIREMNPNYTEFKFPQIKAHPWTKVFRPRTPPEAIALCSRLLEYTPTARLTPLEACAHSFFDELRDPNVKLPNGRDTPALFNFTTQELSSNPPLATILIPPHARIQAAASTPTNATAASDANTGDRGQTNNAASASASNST

[10] = molecular target: Serine/threonine-protein kinase PAK 2 (Homo sapiens) (UniProt Q13177); test: Selectivity interaction (KinomeScan (DiscoverX)) EUB0000045b PAK2
Sequence of Serine/threonine-protein kinase PAK 2 (Homo sapiens) (Q13177 whole entry): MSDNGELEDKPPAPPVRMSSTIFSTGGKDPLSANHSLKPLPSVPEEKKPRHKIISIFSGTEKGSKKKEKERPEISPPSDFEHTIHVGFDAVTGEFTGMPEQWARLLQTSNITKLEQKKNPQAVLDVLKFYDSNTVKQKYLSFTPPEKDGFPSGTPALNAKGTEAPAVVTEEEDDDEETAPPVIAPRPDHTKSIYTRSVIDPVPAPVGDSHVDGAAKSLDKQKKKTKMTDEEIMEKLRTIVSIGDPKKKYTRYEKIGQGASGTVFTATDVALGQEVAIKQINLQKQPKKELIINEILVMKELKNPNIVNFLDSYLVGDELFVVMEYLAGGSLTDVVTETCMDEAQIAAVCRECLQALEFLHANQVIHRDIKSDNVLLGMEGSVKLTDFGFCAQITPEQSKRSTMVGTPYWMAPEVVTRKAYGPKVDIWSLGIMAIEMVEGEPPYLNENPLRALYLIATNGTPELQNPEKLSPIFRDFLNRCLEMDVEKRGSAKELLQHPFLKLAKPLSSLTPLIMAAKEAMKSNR

[11] = molecular target: Serine/threonine-protein kinase SIK1 (Homo sapiens) (UniProt P57059); test: Selectivity interaction (KinomeScan (DiscoverX)) EUB0000607a SIK1; details: at 10 µM
Sequence of Serine/threonine-protein kinase SIK1 (Homo sapiens) (P57059 whole entry): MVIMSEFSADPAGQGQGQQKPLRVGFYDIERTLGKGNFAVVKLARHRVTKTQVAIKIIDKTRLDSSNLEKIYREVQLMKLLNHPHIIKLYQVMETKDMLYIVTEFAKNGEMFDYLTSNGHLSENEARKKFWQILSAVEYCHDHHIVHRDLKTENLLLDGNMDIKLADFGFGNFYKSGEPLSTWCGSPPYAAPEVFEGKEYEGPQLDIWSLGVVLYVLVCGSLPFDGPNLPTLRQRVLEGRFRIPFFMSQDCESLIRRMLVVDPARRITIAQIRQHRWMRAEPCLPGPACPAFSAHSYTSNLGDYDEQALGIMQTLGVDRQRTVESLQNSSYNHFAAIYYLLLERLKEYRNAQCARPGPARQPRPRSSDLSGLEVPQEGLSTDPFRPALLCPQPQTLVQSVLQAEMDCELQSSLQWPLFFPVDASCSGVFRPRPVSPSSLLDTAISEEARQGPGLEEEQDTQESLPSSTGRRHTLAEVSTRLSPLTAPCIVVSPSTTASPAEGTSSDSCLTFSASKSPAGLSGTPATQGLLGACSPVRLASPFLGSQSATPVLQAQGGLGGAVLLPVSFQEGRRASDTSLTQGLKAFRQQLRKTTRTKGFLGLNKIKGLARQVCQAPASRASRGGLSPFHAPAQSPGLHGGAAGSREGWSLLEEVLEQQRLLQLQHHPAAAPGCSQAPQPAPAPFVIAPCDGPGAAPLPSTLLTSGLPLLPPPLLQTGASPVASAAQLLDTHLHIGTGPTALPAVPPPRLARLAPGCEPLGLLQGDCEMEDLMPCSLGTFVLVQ

Cc1cc([C@@H](C)Nc2ccccc2C(=O)O)c2nc(N3CCOCC3)cc(=O)n2c1 [AZD-6482]
IC50 [1]: > 1 mM

Cc1cnc(Nc2ccc(F)cc2Cl)nc1-c1c[nH]c(C(=O)N[C@H](CO)c2cccc(Cl)c2)c1
% of inhibition [2]: 0%

CN(C)C/C=C/C(=O)Nc1ccc(C(=O)N2CCCC(Nc3ncc(Cl)c(-c4c[nH]c5ccccc45)n3)C2)cc1 (configuration not stated)
% of control [3]: 73%

CC[C@@H]1[C@H](F)C(=O)N[C@@H]1COc1nccc2cc(C(N)=O)c(OC)cc12 [ZIMLOVISERTIB]
% of inhibition [4]: -0.6%
% of inhibition [5]: -7.6%

Cn1cc(-n2cnc3c(NCc4nc5cc(Cl)c(Cl)cc5[nH]4)nc(N4CCOCC4)nc32)cn1
% of control [6]: 0.0605%
% of control [7]: 0.348%

Cc1cc(F)c(C(=O)Nc2cccc(-c3nncn3C(C)C)n2)cc1-n1cnc(C2CC2)c1
% of control [8]: 100%

CCC(=O)N1CCN(c2ccc(-n3c(=O)ccc4cnc5ccc(-c6cnc7ccccc7c6)cc5c43)cc2C(F)(F)F)CC1
% of control [9]: 100%

C=CC(=O)Nc1cc(-n2c(=O)ccc3cnc4ccc(-c5ccc(NS(C)(=O)=O)cc5)cc4c32)ccc1C
% of control ([10]; at 1 µM): 78%
% of control ([10]; at 10 µM): 92%

CNC(=O)Nc1ccc(-c2nc(N3CC4CCC(C3)O4)c3cnn(C4CCC5(CC4)OCCO5)c3n2)cc1
% of control [11]: 86%
